For one series, the system named is rat VSMC. Description: Stimulation of VSMC with interferon-γ and LPS, dependence of NO2 production on cytokine and L-arginine. It is filed as cell-based. The following applies: extracellular L-arginine over the range of 0 to 10mM, IFN-γ (100U/ml) and LPS (100µg/ml) 24 hours. Here is the method: (§1) Rat VSMCs were prepared from the media layer of thoracic aorta of Sprague-Dawley rats by the explant method. The cells were cultured in Dulbecco's modified Eagle's medium (DMEM, Gibco BRL, Gaithersburg, MD) containing 10% fetal calf serum, 100U/ml penicillin and 100µg/ml streptomycin at 37°C under a humidified atmosphere containing 5% CO2. After subconfluent growth, cells were cultured with MEM Select Amine Kit (Gibco BRL, Gaithersburg, MD) to be treated by specific concentrations of extracellular free L-arginine. Experiments were performed using cultured cells at passage levels of 5-10.
Extracellular NO production was measured as its stable oxidative metabolite, nitrite (NO2). […] Values of NO2 production were corrected with relative cell count assessed by a cell proliferation kit II (XTT) (Boeheringer Mannheim, Germany).
Cells were plated at a density of 5 × 10^3 per well into 96-well plates. […] After 24 hours of incubation, the cells were then treated with a mixture of IFN-γ (100U/ml) and LPS (100µg/ml) in the medium containing the same dose of L-arginine for another 24 hours, and nitrite (NO2) accumulation in the culture medium was quantified.
No detectable NO2 was measured in the medium of non-stimulated VSMC. When cells were stimulated with a mixture of IFN-γ (100U/ml) and LPS ([…]), a significant amount of NO2 was detected in the medium (14.7 ± 0.3 µM / 10^5 cells / 24 hours). […]

In another series the test system is cytokine-stimulated VSMC. Description: Effect of arginine oligomers on NO production (NO2, Griess reaction) in cytokine-stimulated VSMC. The series is classed as cell-based, rat. Here is the method:
as §1
Extracellular NO production was measured as its stable oxidative metabolite, nitrite (NO2). At the end of each incubation, samples of the medium (80µl) were collected, and NO2 measurement was performed using the Griess reaction facilitated by a commercial colorimetric assay (Cayman Chemical, Ann Arbor, MI). Values of NO2 production were corrected with relative cell count assessed by a cell proliferation kit II (XTT) (Boeheringer Mannheim, Germany).
Subconfluent cells were pre-incubated with medium containing 100µM arginine for 24 hours. […] After translocation, the cells were incubated with a mixture of IFN-γ (100U/ml) and LPS (100µg/ml) in medium containing 100µM L-arginine for another 24 hours. In some experiments, L-NMMA (1mM), a nitric oxide synthase inhibitor, was added to the medium.
For orientation: Nitrite, measured by Griess reagent, commonly stands in for NO production.

The subject of series [1] is rabbit carotid artery segment. Description: Ex vivo translocation of biotin-labeled peptides into carotid artery segments. The arrangement: species or system New Zealand white rabbits. The following applies: reincubated in DMEM with 10% FBS; for positive staining (internalized biotin): day 5 after exposure (10.0 µM, 30 minutes). Here is the method: After incubation with biotin labeled oligomer, vascular segments were washed, then frozen in OCT compound (Miles Scientific). Frozen sections, 5 µm thick, were fixed with acetone for 10 minutes. Internalized biotin was detected using the staining procedure described in Example 2. Methyl green was used for nuclear counter staining.
To quantify the efficiency of nuclear translocation, the numbers of both DAB positive nuclei and total nuclei were counted in the intima and media separately at X400 magnification with a video image analysis system (Automatrix). The frequency of nuclear translocation was expressed as the percent staining of nuclei, defined as the ratio of the number of DAB positive nuclei to that of all nuclei, in the intima and media. Each protocol was repeated 4 times.
Both carotid artery and jugular vein segments of male New Zealand white rabbits were used. To test the dose dependence of R7 translocation, vascular segments were incubated for 30 minutes with either bL-R7 or bD-R7 solution (0.1, 1.0, and 10.0 µM) in serum-free Dulbecco's minimal essential medium (DMEM) (Gibco BRL). To test the incubation time dependence, vascular segments were incubated with 10.0 µM of biotin labeled R7 solution for 10 seconds, 60 seconds, 5 minutes, 10 minutes, and 30 minutes. Furthermore, to determine the ability of R7 to penetrate through the vessel wall, vascular segments were ligated one end, R7 containing medium was instilled, and the other end ligated so as to expose only the luminal surface to R7. The luminal surface of the vascular segment was exposed to bL-R7 or bD-R7 (10.0 µM) for 30 minutes. To test the temperature dependence of translocation, vascular segments were incubated with 10.0 µM of biotin labeled R7 solutions at 37°C or 4°C. To determine the disappearance time course of translocated R7. vascular segments were incubated with biotin labeled R7 solutions (10.0 µM) at 37°C for 30 minutes, and then reincubated in DMEM with 10% FBS up to 5 days. Vascular segments were harvested at 1, 2 and 5 days after initial incubation.

For series [2], the system named is human umbilical vein endothelial cells (ECV304). The experiment in a line: In vitro translocation of biotin-labeled peptides into endothelial cells. The series is classed as cell-based. As to conditions: control treatments, 30 minutes incubation (peptides 0.1, 1.0, and 10.0 µM). Here is the method: In the studies described below, transmembrane transport and cellular uptake of oligomers was assessed by incubating cells or tissue with biotin-oligomer conjugates, followed by treatment with horseradish peroxidase (HRP)-conjugated streptavidin and subsequent incubation with DAB (3,3'-diaminobenzidine), a substrate of the enzyme which produces a highly colored product.
Spontaneously transformed human umbilical vein endothelial cells (ECV304, ATCC) were cultured in medium M199 (Irvine Scientific) containing 10% fetal bovine serum (FBS), 100 IU/ml penicillin and 100 µg/ml of streptomycin (Gibco BRL). Confluent cells were washed and placed in serum-free medium. After 2 hours, the cells were incubated in presence of biotin labeled peptides, as bL-R7, or bD-R7, or bL-K7 (0.1, 1.0, and 10.0 µM). After 30 minutes of incubation, cells were washed 3 times with phosphate-buffered saline (PBS), fixed in ethanol/acetone; washed in PBS; incubated for 30 minutes with peroxidase suppressor (ImmunoPure, Pierce) to block endogenous peroxidase activity; and then incubated with 5 µg/ml of horse-radish peroxidase (HRP) conjugated strepavidin (Pierce) for 30 minutes. Substrate of HRP, diaminobenzidine (DAB, Sigma), was added to the cells. The reaction was terminated by washing in distilled water after a 60-second incubation. This experiment was repeated 3 times.

In the case of `N=C(N)NCCC[C@H](N)C(=O)O` [L-arginine], in the series on rat VSMC, the “NO2 synthesis by cytokine stimulated VSMC” value is on record as “progressive increase in NO2 synthesis”. The NO biosynthesis result in the series on cytokine-stimulated VSMC (1 mM for 5 minutes (data not shown)) was “did not significantly increase NO biosynthesis”. Also, in the series on cytokine-stimulated VSMC (high concentrations, up to 1mM), the “elevation of NO production” value is given as “not observed”.

Consider `N=C(N)NCCC[C@@H](NC(=O)[C@@H](CCCNC(=N)N)NC(=O)[C@@H](CCCNC(=N)N)NC(=O)[C@@H](CCCNC(=N)N)NC(=O)[C@@H](CCCNC(=N)N)NC(=O)[C@@H](CCCNC(=N)N)NC(=O)[C@@H](CCCNC(=N)N)NC(=O)CCCC[C@@H]1SC[C@@H]2NC(=O)N[C@@H]21)C(=O)O` [bD-r7], for which the “positive staining (internalized biotin)” value in series [1] is reported as “No significant positive staining was observed”. In addition, the “residual nuclear biotin in endothelial and medial cells” value in series [1] (days 1 and 2 after exposure (10.0 µM, 30 minutes)) is listed as “greater in vascular segments treated with bD-r7 than those treated with bL-R7”.

As to `N=C(N)NCCC[C@H](NC(=O)[C@H](CCCNC(=N)N)NC(=O)[C@H](CCCNC(=N)N)NC(=O)[C@H](CCCNC(=N)N)NC(=O)[C@H](CCCNC(=N)N)NC(=O)[C@H](CCCNC(=N)N)NC(=O)[C@H](CCCNC(=N)N)NC(=O)CCCC[C@@H]1SC[C@@H]2NC(=O)N[C@@H]21)C(=O)O` [bR7, biotin-labeled heptaarginine], the “positive staining (internalized biotin)” value in series [1] is listed as “No significant positive staining was observed”.

As for `O=C(O)CCCC[C@@H]1SC[C@@H]2NC(=O)N[C@@H]21` [biotin], the internalized biotin signals entry in series [2] was “No internalized biotin signals were detected”.

These data come from patent EP1656945A1, “Pharmaceutical composition comprising oligoarginine” (THE BOARD OF TRUSTEES OF THE LELAND STANFORD JUNIOR …, priority 1999, dated 2006).
